Experiments:
mAB 6F5 [1] = assay: Binding of nivalenol to mAB 6F5; design: species or system mouse
mAB 6F5 [2] = type: binding, mouse; conditions: read-out: 50% inhibitory concentration
[3] = system: antibody obtained from C430-BSA-immunized mice; assay: CI-ELISA: antisera of C430-BSA-immunized mice on immobilized DONPEP.2 phage; type: binding
Experimental: The strips were washed and blocked as described for the CD-ELISA. Various concentrations of DON (0 to 10,000 ηg/ml in 1% methanol-PBS), 50 μl/well, was added to the wells, and then 50 μl of anti-DON mAB 6F5 (10 μg/ml in 10% milk-PBS) was added to each well. The wells were incubated at 37° C. for 1 hour. Then the wells were washed six times with PBS-T, and the amounts of bound anti-DON mAB 6F5 were determined by incubation with goat anti-mouse IgG-HRP conjugate (diluted 1:2,000 with 10% milk-PBS) at 37° C. for 1 hour. The amounts of bound enzyme were determined as described above.
Synthetic peptide C430 was conjugated to BSA with a m-maleimidobenzoyl-N-hydroxysulfosuccinimide ester (sulfo-MBS) cross-linker. The C430-BSA conjugate, at a molar ratio of peptide C430 to the carrier protein BSA of about 29:1, was used to inject 7-week-old BALB/c female mice intraperitoneally or 6-month-old New Zealand white rabbits subcutaneously. The initial injections used for the mice contained 100 to 200 μg of C430-BSA conjugate in 200 μl of saline-Freund's complete adjuvant (1:1). These injections were followed at 3-week intervals by booster injections consisting of 100 to 200 μg of conjugate in 200 μl of saline-Freund's incomplete adjuvant (1:1). […]

[4] = system: protein synthesis in vitro with rabbit reticulocyte lysate; type: biochemical

Row | Compound | affinity for mAB 6F5 relative to DON (mAB 6F5 [1]) | IC50 (mAB 6F5 [2]) [µM] | inhibition of antisera binding to immobilized phage-displayed peptide ([3]; free competitor in solution) | effect on new protein synthesis [4] | cell death (mouse bone marrow cells; B6C3F1, mouse) | IC50 ([3]; antiserum after the fourth injection of C430-BSA, FIG. 6, read-out: concentration giving 50% inhibition of antiserum binding to immobilized phage-displayed peptide) [µM] | new protein synthesis with DON mixed with equimolar C430 [4] | effect on cell viability when combined with DON (mouse bone marrow cells) | effect on viability of bone marrow cells (mouse bone marrow cells)
1 | CC1=C[C@H]2O[C@@H]3[C@H](O)[C@@H](O)[C@](C)([C@@]2(CO)[C@H](O)C1=O)[C@]31CO1 [Nivalenol, nivalenol] | slightly less affinity than DON |  |  |  |  |  |  |  | 
2 | CC1=C[C@H]2O[C@@H]3[C@H](O)C[C@](C)([C@@]2(CO)[C@H](O)C1=O)[C@]31CO1 [DON, 12,13-epoxy-3,7,15-trichothec-9-en-8-one, reference compound] |  | 3.4 | not inhibited by free DON | significantly inhibited new protein synthesis | 40-60% |  |  |  | 
3 | H-SWGPFPFGGGSC-OH [C430, NH2-SWGPFPFGGGSC-COOH] |  |  |  | had no such inhibitory effect |  | 0.39 | new protein synthesis was not inhibited | did not significantly increase or decrease the cell viability caused by DON | did not have any adverse effect on the viability

From patent US7250295B2 (Board of Trustees of Michigan State University, priority 1999, dated 2007)
